# In patent US20100035853A1, “METHOD FOR PREVENTING OR TREATING CISPLATIN-INDUCED NEPHROTOXICITY” (HYOGO COLLEGE OF MEDICINE, priority 2008, published 2010):
# Columns and labels:
# [1] = target: T1, aldosterone receptor (Mus musculus, UniProt Q8VII8)
# T1 sequence (Q8VII8 1-978): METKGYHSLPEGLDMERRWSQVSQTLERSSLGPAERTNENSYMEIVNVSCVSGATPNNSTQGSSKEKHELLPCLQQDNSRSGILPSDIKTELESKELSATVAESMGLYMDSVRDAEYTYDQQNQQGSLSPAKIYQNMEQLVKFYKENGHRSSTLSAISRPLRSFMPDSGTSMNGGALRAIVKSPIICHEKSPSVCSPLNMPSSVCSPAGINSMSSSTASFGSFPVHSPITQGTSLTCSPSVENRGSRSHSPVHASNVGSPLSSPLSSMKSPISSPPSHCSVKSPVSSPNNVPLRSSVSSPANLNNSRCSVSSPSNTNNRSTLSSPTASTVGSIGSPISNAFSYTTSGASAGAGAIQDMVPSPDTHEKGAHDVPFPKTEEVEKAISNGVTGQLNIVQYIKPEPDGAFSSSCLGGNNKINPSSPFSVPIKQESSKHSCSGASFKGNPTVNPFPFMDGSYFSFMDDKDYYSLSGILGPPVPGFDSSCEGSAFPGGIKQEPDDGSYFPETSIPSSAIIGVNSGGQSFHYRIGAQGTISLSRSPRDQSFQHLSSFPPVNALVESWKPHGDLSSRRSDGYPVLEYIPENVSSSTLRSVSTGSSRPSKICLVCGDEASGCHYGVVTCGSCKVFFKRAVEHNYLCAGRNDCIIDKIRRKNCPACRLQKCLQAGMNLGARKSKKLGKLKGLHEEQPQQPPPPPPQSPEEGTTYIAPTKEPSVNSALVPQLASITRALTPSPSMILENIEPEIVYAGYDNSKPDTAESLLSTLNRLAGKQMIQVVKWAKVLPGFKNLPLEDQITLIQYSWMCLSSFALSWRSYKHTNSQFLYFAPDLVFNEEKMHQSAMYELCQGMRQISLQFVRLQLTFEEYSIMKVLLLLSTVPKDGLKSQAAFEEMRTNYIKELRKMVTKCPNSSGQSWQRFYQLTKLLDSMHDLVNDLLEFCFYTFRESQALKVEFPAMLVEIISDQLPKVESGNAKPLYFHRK
# Protocol: (§1) Open and closed columns show vehicle- and Eplerenone-treated mice, respectively. […] NS; not significant.
# (§2) Blood urea nitrogen (BUN) and creatinine were enzymatically measured by HITACHI 7180 auto-analyzer. Aldosterone level was measured by radioimmuno assay. All of these assays were performed by SRL, Inc (Tokyo, Japan).
# [2] = target: T1, aldosterone receptor; assay: Effect of Eplerenone on Cisplatin-induced increase in plasma aldosterone in wild-type mice; assay type: in vivo; design: Wild-type male BALB/c mice (WT mice) aged 9-10 weeks-old were purchased; from tissue; host or cells: whole animal: wild-type male BALB/c mice dosed orally, with read-outs in plasma; conditions: Eplerenone 20 mg/kg orally, observation for 3 days, significant at day 1 and later
# Protocol: as §1, §2
# [3] = Accumulation of Cisplatin in the kidney (platinum ion content of kidney homogenate); assay type: in vivo, mouse; conditions: wild-type vs IL-18KO mice, Cisplatin 20 mg/kg i.p.
# Protocol: Accumulations of Cisplatin in the kidney were measured as platinum ion content in the kidney homogenate. Open and closed columns show wild-type and IL-18KO mice, respectively.
# [4] = Serum IL-18 and other cytokines after Cisplatin treatment (ELISA); assay type: in vivo, mouse; conditions: wild-type BALB/c mice, Cisplatin 20 mg/kg i.p.
# Protocol: Levels of serum IL-18 were measured using the specific ELISA kit.
# IL-18 concentrations in serum were measured by ELISA purchased from Medical and Biological Laboratories (Tokyo, Japan) in accordance with the manufactures' instructions. Other cytokines such as TNF-α, IFN-γ, IL-1β, IL-10 and MIP-1α were measured respective ELISA kits purchased from R&D Systems Inc (USA).
# [5] = Survival of wild-type and IL-18KO mice after Cisplatin; assay type: in vivo, mouse; conditions: Cisplatin 20 mg/kg i.p.; for dead mice: day 2; for survival rate: day 3
# Protocol: Open and closed symbols show wild-type and IL-18KO mice, respectively.
# (§3) As a control, mice were treated with a similar volume of saline.
# [6] = Exogenous recombinant mouse IL-18 in Cisplatin-treated IL-18KO mice: plasma BUN and creatinine; assay type: in vivo; conditions: IL-18KO mice supplemented with rmIL-18 (2 μg/body), Cisplatin 20 mg/kg i.p.
# Protocol: Plasma levels of BUN and creatinine were measured as shown in Materials and Methods. Open, closed and grey-colored columns show wild-type, IL-18KO and IL-18-supplemented IL-18KO mice, respectively. […] NS; not significant.
# as §3, §2
# [7] = Induction of plasma aldosterone by recombinant IL-18 in wild-type mice; assay type: in vivo
# Protocol: Wild-type mice were treated with various doses of IL-18 (0.2, 0.6 and 2 mg/mouse), then blood samples were collected at 5 hours after IL-18 treatment. […] NS; not significant.
# as §2
# [8] = wild-type mice, Eplerenone 20 mg/kg orally 30 min pre, day 1, day 2, Cisplatin 20 mg/kg i.p.
molecule,measurement,setting,value
COC(=O)[C@@H]1CC2=CC(=O)CC[C@]2(C)[C@@]23O[C@@H]2C[C@@]2(C)[C@@H](CC[C@@]24CCC(=O)O4)[C@H]13 [Eplerenone],inhibition of increased creatinine level vs vehicle,[1]; day 1 and later after Cisplatin treatment,significant inhibition
same,inhibition of increased BUN level vs vehicle,[1]; day 2 and 3 after Cisplatin treatment,Significant inhibition
same,renal toxicity of Cisplatin (summary statement),[1]; wild-type mice,strongly suppressed
same,lethality of Cisplatin,[1]; wild-type mice treated with Eplerenone (data not shown),almost completely suppressed
same,elevation of plasma BUN,[1]; [8],almost completely suppressed
same,elevation of plasma creatinine,[1]; [8],almost completely suppressed
same,increase in plasma aldosterone level induced by Cisplatin,[2],completely inhibited
N.N.[Cl][Pt][Cl] [Cisplatin],quantity of platinum ion in the kidney,[3]; day 1,almost equivalent
same,rate of excretion of platinum ion from the kidney,[3]; day 2 and 3,much rapid in IL-18KO mice than in wild-type mice
same,levels of IL-18 in the circulation,[4]; around day 3,over 1000 pg/ml
same,"other cytokines (TNF-α, IFN-γ, IL-1β, IL-10, MIP-1α) in serum",[4]; when IL-18 was at maximal levels (data not shown),undetectable
same,dead mice,[5]; IL-18KO mice,no mouse was dead
same,survival rate,[5]; IL-18KO mice,92.9%
same,dead mice,[5]; wild-type mice,six of fourteen
same,survival rate,[5]; wild-type mice,28.6%
"rmIL-18: Recombinant mouse IL-18 donated by GlaxoSmithKline Pharmaceuticals (protein, UniProt P70380 36-192, looked up) Interleukin-18: NFGRLHCTTAVIRNINDQVLFVDKRQPVFEDMTDIDQSASEPQTRLIIYMYKDSEVRGLAVTLSVKDSKMSTLSCKNKIISFEEMDPPENIDDIQSDLIFFQKRVPGHNKMEFESSLYEGHFLACQKEDDAFKLILKKKDENGDKSVMFTLTNLHQS",plasma levels of creatinine induced by Cisplatin,[6]; day 1 to 3,significantly increased
same,plasma levels of BUN,[6]; day 3,increased to almost equivalent levels with wild-type mice
same,renal toxicity of exogenously given IL-18 alone,[7]; wild-type mice (data not shown),did not cause any renal toxicity
same,dose of IL-18 giving significant induction of plasma aldosterone,"[7]; wild-type mice, 5 hours after IL-18 treatment",over 0.6 μg
same,plasma levels of aldosterone,"[7]; wild-type mice, various doses of IL-18, 5 hours after treatment",augmented the plasma levels of aldosterone in a dose-dependent manner
